Laboratory results published in patent US5637318A, “Dermatological agent for assisting the transport of oxygen in the skin” (Lancaster Group AG, priority 1992, dated 1997).
Read-outs that look alike come from different tables or passages of the source.

Experiments:
[1] = 37° C.; cited from earlier work
skin tissue [2] = conditions: in vivo
Source text: (§1) It was possible to determine the dependence of the penetration rate and the depth of penetration of the particle size of the aggregates experimentally by separate investigations in animal experiments using labelled encapsulated fluorocarbons. […] The choice of fluorocarbons or mixtures thereof according to their lipid solubility (represented by their critical solubility temperature CST in n-hexane) permits, as a further important criterion, the regulation of the residence time in the tissue.

skin tissue [3] = experiment: Penetration and residence of labelled encapsulated fluorocarbons in skin tissue, animal experiments
Source text: as §1

[4] = Critical solubility temperature (CST) in n-hexane; assay type: physicochemical; conditions: represented by CST in n-hexane
Source text: The choice of fluorocarbons or mixtures thereof according to their lipid solubility (represented by their critical solubility temperature CST in n-hexane) permits, as a further important criterion, the regulation of the residence time in the tissue.

SMILES: FC1(F)OC(F)(F)C(F)(F)N(C(F)(F)C2(F)C(F)(F)C(F)(F)C(F)(F)C(F)(F)C2(F)F)C1(F)F [F-cyclohexylmethyl-morpholine]
- Vapour Pressure [1]: 4 mm Hg

SMILES: FC(F)(F)C(F)(F)C(F)(F)C(F)(F)C(F)(F)C(F)(F)OC(F)(F)C(F)(F)C(F)(F)C(F)(F)C(F)(F)C(F)(F)F [F-dihexyl ether]
- Vapour Pressure [1]: 2 mm Hg

SMILES: FC(F)(F)C(F)(F)C(F)(F)C(F)(F)C=CC(F)(F)C(F)(F)C(F)(F)C(F)(F)F [bis-F(butyl)ethene]
- Vapour Pressure [1]: 12.6 mm Hg

SMILES: FC(F)(F)C(F)(F)C(F)(F)N(C(F)(F)C(F)(F)C(F)(F)F)C(F)(F)C(F)(F)C(F)(F)F [F-tripropylamine]
- Vapour Pressure [1]: 18.5 mm Hg

SMILES: FC(F)(F)C(F)(F)C(F)(F)C(F)(F)C(F)(F)C(F)(F)C(F)(F)C(F)(F)Br [Perfluorooctyl bromide]
- Vapour Pressure [1]: 14 mm Hg

SMILES: FC(F)(F)C(F)(F)C(F)(F)C(F)(F)C(F)(F)C(F)(F)F [F-hexane]
- Vapour Pressure [1]: 414 mm Hg

SMILES: FC1(F)C(F)(F)C(F)(F)C2(F)C(F)(F)C(F)(F)C(F)(F)C(F)(F)C2(F)C1(F)F (centres unmarked) [Perfluorodecalin]
- residence time in the tissue / release from the tissue (skin tissue [2]): released correspondingly more rapidly from the tissue
- Vapour Pressure [1]: 12.5 mm Hg

SMILES: FC(F)(F)C(F)(F)C(F)(F)C(F)(F)C1(F)OC(F)(F)C(F)(F)C1(F)F (centres unmarked) [Perfluorobutyl-tetrahydrofuran]
- Vapour Pressure [1]: 51 mm Hg
- residence time in the tissue / release from the tissue (skin tissue [3]): released correspondingly more rapidly from the tissue

SMILES: FC(F)(F)C(F)(F)C(F)(F)C(F)(F)N(C(F)(F)C(F)(F)C(F)(F)C(F)(F)F)C(F)(F)C(F)(F)C(F)(F)C(F)(F)F [F-tributylamine]
- Vapour Pressure [1]: 1 mm Hg
- residence time in the tissue / release from the tissue (skin tissue [3]): relatively large residence time
- lipid solubility [4]: poor lipid solubility

SMILES: FC(F)(F)C1(F)C(F)(F)C(F)(F)C(F)(F)C(F)(F)C1(F)F [F-methylcyclohexane]
- Vapour Pressure [1]: 180 mm Hg
